Experimental data as given in patent US20230102483A1, “[6R]-MTHF IN 5-FU BASED CHEMOTHERAPY OF LEFT-SIDED COLORECTAL CANCER” (Isofol Medical AB, priority 2021, published 2023).

Tests used:
[1] = cited from earlier work
[2] = leucovorin vs levoleucovorin; cited from earlier work
[3] = test system: metastatic colorectal cancer tumors (Stadium IV CRC patients); experiment: Clinical Study ISO-CC-005 (Phase I/IIa) safety extension cohorts and Follow-up study: tumour response by CT/MRI per RECIST 1.1; format: in vivo, human
From the text: As used herein, the term ORR shall refer to the Objective Response Rate, ie. the proportion of patients with reduction in tumor burden of a predefined amount. […] (Note: the appearance of one or more new lesions is also considered progression). […] Shortly after, applicant started two additional treatment groups in 2018 to generate more safety and efficacy data, i.e. the safety extension Cohort #18 (Treatment Arm #4) and Cohort #19 (Treatment Arm #6). The aim was to evaluate as many patients as possible from the additional treatment groups after a treatment period of 16 weeks or more. On 30 Sep. 2020, applicant announced response assessment data from the two safety extension cohorts (31 patients) treated for 16 weeks or longer (press release: 55% Overall Response Rate on the safety extension cohorts of the ISO-CC-005 Phase I/IIa study|BioSpace). […] These patients had been treated with the selected dose regimen of 120 mg/m2 arfolitixorin and 5-fluorouracil (5-FU) with either irinotecan or oxaliplatin ([…]). Out of the 31 patients, 17 were treated with an ARFOX regimen. Clinical Study ISO-CC-005 was an exploratory, Phase I/II multiple-centre study to be carried out in Stadium IV CRC patients. The study was designed to show clinical relevance for patients by characterizing the tolerability of four arfolitixorin dose levels (30, 60, 120, and 240 mg/m2) in six different standard clinical settings in the presence of fixed doses of 5-FU alone or in combination with either oxaliplatin, irinotecan, or oxaliplatin and bevacizumab. [table] The study was divided in the Main Study and the Follow-up Study. In the Main Study, patients received study treatment with arfolitixorin during eight weeks. Patients eligible for the Follow-up study could participate until reaching progress, but no longer than 18 months. […] The goal with the Dose-finding part of the Main Study was to establish the arfolitixorin dose level assessed as having the most favourable profile, i.e. the selected phase 2 dose (SP2D). […] Response was measured in short- and long-term assessments. […]

Structure (SMILES): Nc1nc(=O)c2c([nH]1)NC[C@H](CNc1ccc(C(=O)N[C@@H](CCC(=O)O)C(=O)O)cc1)N2C=O [1-LV]
- metabolic conversion ([1]; In vitro): rapidly converted to the biologically available methyl-tetrahydrofolate form
- pharmacokinetic comparison [2]: pharmacokinetically identical

Structure (SMILES): Nc1nc2c(c(=O)[nH]1)N(C=O)C(CNc1ccc(C(=O)N[C@@H](CCC(=O)O)C(=O)O)cc1)CN2 (stereo partly shown) [Leucovorin, 5-formyl tetrahydrofolic acid]
- pharmacokinetic comparison [2]: pharmacokinetically identical

Structure (SMILES): Nc1nc2c(c(=O)[nH]1)N1CN(c3ccc(C(=O)N[C@@H](CCC(=O)O)C(=O)O)cc3)C[C@H]1CN2 [[6R]-5,10-MTHF, [6R]-5,10-methylenetetrahydrofolate]
- progression of tumors between 8 and 16 weeks after initiating treatment ([3]; ISO-CC-005, treatment period of at least 8 weeks): No statistically significant progression
- best ORR, patients diagnosed with LCRC or RCA ([3]; left-sided or rectal primary tumor (18 patients), 16 weeks and beyond, 120 mg/m2 arfolitixorin): > 60%
- best ORR, only LCRC (without the rectal cases) ([3]; left-sided primary tumor (13 patients), 16 weeks and beyond, 120 mg/m2 arfolitixorin): ~70%

Structure (SMILES): Nc1nc2c(c(=O)[nH]1)N(C=O)[C@H](CNc1ccc(C(=O)N[C@@H](CCC(=O)O)C(=O)O)cc1)CN2 [d-LV]
- excretion ([1]; kidneys): slowly excreted by the kidneys
